# Laboratory results from ChEMBL document CHEMBL1201862, “PubChem BioAssay data set” (2004).
#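 Values below derive from 48-hour exposures of cells grown in 96-well plates, with endpoints linearly interpolated between the two concentrations bracketing the appropriate inhibition level. GI50: concentration for 50% inhibition of growth.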 Activity calls are given as the source filed them. No stated cut-off is given here; in the data, active = GI50 up to about 1.1 µM and inactive = higher. Where a SMILES comes first, the peptide text is derived from it. The star is where a group is joined. Boc = CC(C)(C)OC(=O)*
# How the values were obtained:
# Assay in all cases: NCI anticancer screen, dose series, 48 h
# 786-0 = tested on: 786-0
# A549 = tested on: A549
# ACHN = tested on: ACHN
# BT-549 = tested on: BT-549
# CAKI-1 = tested on: CAKI-1
# CCRF-CEM = tested on: CCRF-CEM
# COLO 205 = tested on: COLO 205
# DU-145 = tested on: DU-145
# EKVX = tested on: EKVX
# HCC 2998 = tested on: HCC 2998
# HCT-116 = tested on: HCT-116
# HCT-15 = tested on: HCT-15
# HL-60 = tested on: HL-60
# HOP-62 = tested on: HOP-62
# HT-29 = tested on: HT-29
# Hs-578T = tested on: Hs-578T
# IGROV-1 = tested on: IGROV-1
# K562 = tested on: K562
# KM12 = tested on: KM12
# LOX IMVI = tested on: LOX IMVI
# M14 = tested on: M14
# MCF7 = tested on: MCF7
# MDA-MB-231 = tested on: MDA-MB-231
# MDA-MB-435 = tested on: MDA-MB-435
# MDA-N = tested on: MDA-N
# MOLT-4 = tested on: MOLT-4
# Malme-3M = tested on: Malme-3M
# NCI-H226 = tested on: NCI-H226
# NCI-H23 = tested on: NCI-H23
# NCI-H460 = tested on: NCI-H460
# NCI-H522 = tested on: NCI-H522
# NCI/ADR-RES = tested on: NCI/ADR-RES
# OVCAR-3 = tested on: OVCAR-3
# OVCAR-4 = tested on: OVCAR-4
# OVCAR-5 = tested on: OVCAR-5
# OVCAR-8 = tested on: OVCAR-8
# PC-3 = tested on: PC-3
# RPMI-8226 = tested on: RPMI-8226
# RXF 393 = tested on: RXF 393
# SF-268 = tested on: SF-268
# SF-295 = tested on: SF-295
# SF-539 = tested on: SF-539
# SK-MEL-28 = tested on: SK-MEL-28
# SK-MEL-2 = tested on: SK-MEL-2
# SK-MEL-5 = tested on: SK-MEL-5
# SK-OV-3 = tested on: SK-OV-3
# SN12C = tested on: SN12C
# SNB-19 = tested on: SNB-19
# SNB-75 = tested on: SNB-75
# SR = tested on: SR
# SW-620 = tested on: SW-620
# T47D = tested on: T47D
# TK-10 = tested on: TK-10
# U-251 = tested on: U-251
# UACC-257 = tested on: UACC-257
# UACC-62 = tested on: UACC-62
# UO-31 = tested on: UO-31
# A498 = tested on: A498
# HOP-92 = tested on: HOP-92
smiles,measurement,setting,value
CC1=C(C(=O)OC(C)C)C(c2ccccc2C(F)(F)F)C(C(=O)OC(CO[N+](=O)[O-])CO[N+](=O)[O-])=C(C)N1 (stereo not drawn),GI50,786-0,2.87 µM (inactive)
same,GI50,A549,3.92 µM (inactive)
same,GI50,ACHN,4.79 µM (inactive)
same,GI50,BT-549,5.11 µM (inactive)
same,GI50,CAKI-1,9.98 µM (inactive)
same,GI50,CCRF-CEM,2.72 µM (inactive)
same,GI50,COLO 205,10.2 µM (inactive)
same,GI50,DU-145,16.6 µM (inactive)
same,GI50,EKVX,13.3 µM (inactive)
same,GI50,HCC 2998,21.6 µM (inactive)
same,GI50,HCT-116,3.76 µM (inactive)
same,GI50,HCT-15,7.96 µM
same,GI50,HL-60,95.5 µM (inactive)
same,GI50,HOP-62,11 µM (inactive)
same,GI50,HT-29,5.79 µM (inactive)
same,GI50,Hs-578T,15.8 µM (inactive)
same,GI50,IGROV-1,9.29 µM (inactive)
same,GI50,K562,2.69 µM (inactive)
same,GI50,KM12,5.14 µM (inactive)
same,GI50,LOX IMVI,4.61 µM (inactive)
same,GI50,M14,6.98 µM (inactive)
same,GI50,MCF7,4.22 µM (inactive)
same,GI50,MDA-MB-231,12.3 µM (inactive)
same,GI50,MDA-MB-435,6.28 µM (inactive)
same,GI50,MDA-N,4.61 µM (inactive)
same,GI50,MOLT-4,2.17 µM (inactive)
same,GI50,Malme-3M,12.2 µM (inactive)
same,GI50,NCI-H226,13.7 µM (inactive)
same,GI50,NCI-H23,12.7 µM (inactive)
same,GI50,NCI-H460,5.19 µM (inactive)
same,GI50,NCI-H522,3.35 µM (inactive)
same,GI50,NCI/ADR-RES,4.39 µM (inactive)
same,GI50,OVCAR-3,9.31 µM (inactive)
same,GI50,OVCAR-4,5.3 µM (inactive)
same,GI50,OVCAR-5,19.3 µM (inactive)
same,GI50,OVCAR-8,8.13 µM (inactive)
same,GI50,PC-3,2.56 µM (inactive)
same,GI50,RPMI-8226,3.94 µM (inactive)
same,GI50,RXF 393,9.16 µM (inactive)
same,GI50,SF-268,8.63 µM (inactive)
same,GI50,SF-295,4.21 µM (inactive)
same,GI50,SF-539,9.48 µM (inactive)
same,GI50,SK-MEL-28,16.8 µM (inactive)
same,GI50,SK-MEL-2,14.1 µM (inactive)
same,GI50,SK-MEL-5,5.52 µM (inactive)
same,GI50,SK-OV-3,11.2 µM (inactive)
same,GI50,SN12C,4.09 µM (inactive)
same,GI50,SNB-19,14.7 µM (inactive)
same,GI50,SNB-75,2.21 µM (inactive)
same,GI50,SR,5 µM (inactive)
same,GI50,SW-620,5.79 µM (inactive)
same,GI50,T47D,3.83 µM (inactive)
same,GI50,TK-10,23.9 µM (inactive)
same,GI50,U-251,8.26 µM (inactive)
same,GI50,UACC-257,6.34 µM (inactive)
same,GI50,UACC-62,3.99 µM (inactive)
same,GI50,UO-31,1.95 µM (inactive)
COC(=O)CNC(=O)C(Cc1ccccc1)NC(=O)C(CCSC)NC(=O)C(Cc1ccc(O)cc1)NC(=O)OC(C)(C)C (stereo not drawn) (Boc-YMFG-OMe; configuration not given here),GI50,786-0,> 100 µM (inactive)
same,GI50,A498,> 100 µM (inactive)
same,GI50,A549,> 100 µM (inactive)
same,GI50,ACHN,> 100 µM (inactive)
same,GI50,BT-549,35.3 µM (inactive)
same,GI50,CAKI-1,> 100 µM (inactive)
same,GI50,COLO 205,79.3 µM (inactive)
same,GI50,DU-145,> 100 µM (inactive)
same,GI50,HCC 2998,23.2 µM (inactive)
same,GI50,HCT-116,54.3 µM (inactive)
same,GI50,HCT-15,> 100 µM
same,GI50,HL-60,53 µM (inactive)
same,GI50,HOP-62,31.5 µM (inactive)
same,GI50,HOP-92,26.4 µM (inactive)
same,GI50,HT-29,33 µM (inactive)
same,GI50,Hs-578T,> 100 µM (inactive)
same,GI50,IGROV-1,62.7 µM (inactive)
same,GI50,K562,49.8 µM (inactive)
same,GI50,KM12,> 100 µM (inactive)
same,GI50,LOX IMVI,18.5 µM (inactive)
same,GI50,M14,> 100 µM (inactive)
same,GI50,MCF7,41.8 µM (inactive)
same,GI50,MDA-MB-231,24.5 µM (inactive)
same,GI50,MDA-MB-435,> 100 µM (inactive)
same,GI50,MDA-N,33.3 µM (inactive)
same,GI50,MOLT-4,17.5 µM (inactive)
same,GI50,Malme-3M,> 100 µM (inactive)
same,GI50,NCI-H226,> 100 µM (inactive)
same,GI50,NCI-H23,56.1 µM (inactive)
same,GI50,NCI-H460,> 100 µM (inactive)
same,GI50,NCI-H522,19.4 µM (inactive)
same,GI50,NCI/ADR-RES,> 100 µM (inactive)
same,GI50,OVCAR-3,16.9 µM (inactive)
same,GI50,OVCAR-4,> 100 µM (inactive)
same,GI50,OVCAR-5,> 100 µM (inactive)
same,GI50,OVCAR-8,39.9 µM (inactive)
same,GI50,PC-3,> 100 µM (inactive)
same,GI50,RPMI-8226,22.3 µM (inactive)
same,GI50,RXF 393,47.6 µM (inactive)
same,GI50,SF-268,29.7 µM (inactive)
same,GI50,SF-295,> 100 µM (inactive)
same,GI50,SF-539,> 100 µM (inactive)
same,GI50,SK-MEL-28,18.2 µM (inactive)
same,GI50,SK-MEL-2,18.1 µM (inactive)
same,GI50,SK-MEL-5,> 100 µM (inactive)
same,GI50,SK-OV-3,> 100 µM (inactive)
same,GI50,SN12C,45.3 µM (inactive)
same,GI50,SNB-19,37.8 µM (inactive)
same,GI50,SNB-75,> 100 µM (inactive)
same,GI50,SW-620,40.3 µM (inactive)
same,GI50,T47D,32.4 µM (inactive)
same,GI50,TK-10,> 100 µM (inactive)
same,GI50,U-251,41.6 µM (inactive)
same,GI50,UACC-257,19.1 µM (inactive)
same,GI50,UACC-62,30.1 µM (inactive)
same,GI50,UO-31,> 100 µM (inactive)
